Measurements reported in patent EP0940081A1, “Combinations of active agents and disinfectants, preservatives and antiseptics containing same” (Bode Chemie GmbH & Co., priority 1998, dated 1999).
Read-outs that look alike come from different tables or passages of the source.

How the values were obtained:
Staphylococcus aureus [1] = experiment: Agar diffusion test, inhibition zone; format: cell-based; conditions: 24 h
Procedure: Methodik: Decylthiouroniumbromid wurde in abgestuften Konzentrationen im Agar inkorporiert. In Stanzlöcher wurde eine Natriumperboratlösung ohne und mit Aktivierung pipettiert. Die Platten wurden mit Staphylococcus aureus beimpft und 24 h bebrütet. Der entstehende Hemmhof wurde gemessen.

[2] = Cytotoxicity, cell count of monolayer culture after 24 h exposure; format: cell-based, human; conditions: human, fl amnion cells, 24 h, read-out: Median der Zellzahl
Procedure: (§1) Methodik: Die Zytotoxizität wird an der FL-Linie (menschliche Amnionzellen) geprüft. 2-3 Tage nach der Zelleinsaat werden die Zellen, nachdem sie als einschichtige Zellkultur (Monolayer) vorliegen, nach Medienwechsel für 24 h mit der Prüfsubstanz exponiert, danach abgelöst und die Zellzahl in % zur Kontrolle mit dem Zellzähler Universal 87001 (mölab, Hilden) ermittelt.

Pseudomonas aeruginosa = experiment: Agar incorporation test, bacteriostatic activity; format: cell-based; set-up: key to Bakteriostatische Wirksamkeit (Wachstum): ⊕⊕: ungehemmtes Wachstum; ⊕: vermindertes Wachstum; -: absolute Hemmung (a. H.); conditions: for Bakteriostatische Wirksamkeit (Wachstum): 24 h bei 36 °C
Excerpt: (§2) Methodik: Percarbamid und Dodecylthiouroniumchlorid werden unter städigem Durchmischen bis zur vollständigen Homogenisierung erwärmt. Die Prüfung der Kombination im Vergleich zu den entsprechenden Monowirkstoffen auf bakteriostatische Wirksamkeit erfolgte im Agarinkorporationstest. Die zu untersuchenden Substanzen wurden in Wasser standardisierter Härte gelöst. Die Konzentration der Testsubstanzen im Nähragar wurde in einer geometrischen Reihe auf der Basis 2 abgestuft. Zum Beimpfen der Testplatten wurden die im Beispiel 1 genannten Testkeime 6 h in Caseinpepton-Sojamehlpepton-Lösung bebrütet und so in eine logarithmische Wachstumsphase gebracht. Danach wurden die Agarplatten sternförmig sektorenweise mit jeweils einer ? abgestrichenen Öse beimpft. Der Sektor von Proteus mirabilis wurde durch Gräben abgetrennt, um das Schwärmen zu verhindern. Nach 24 h Bebrütung bei 36 °C erfolgte die Bewertung des Bakterienwachstums unter Vergleich mit substanzfreien Kontrollplatten nach folgendem Schema: ++++ ungehemmtes Wachstum +++ geringe Wachstumshemmung (maximal ¾ des Wachstums der Kontrollen) ++ mäßige Wachstumshemmung (maximal ½ des Wachstums der Kontrollen) + starke Wachstumshemmung (maximal ¼ des Wachstums der Kontrollen) Das sog. ? verminderte Wachstum" (v. W.) umfaßt die Bereiche + bis +++ - absolute Hemmung (a. H.)
(§3) In den Tabellen 5, 6 und 7 bedeuten ⊕⊕ ungehemmtes Wachstum und ⊕ vermindertes Wachstum.

Enterococcus faecium = experiment: Agar incorporation test, bacteriostatic activity; format: cell-based; set-up: key: ⊕⊕: ungehemmtes Wachstum; ⊕: vermindertes Wachstum; -: absolute Hemmung (a. H.); conditions: 24 h bei 36 °C
Excerpt: as §2, §3

Staphylococcus aureus [3] = experiment: Agar incorporation test, bacteriostatic activity; format: cell-based; set-up: key: ⊕⊕: ungehemmtes Wachstum; ⊕: vermindertes Wachstum; -: absolute Hemmung (a. H.); conditions: 24 h bei 36 °C
Excerpt: as §2, §3

Proteus mirabilis = experiment: Agar incorporation test, bacteriostatic activity; format: cell-based; set-up: key: ⊕⊕: ungehemmtes Wachstum; ⊕: vermindertes Wachstum; -: absolute Hemmung (a. H.); conditions: 24 h bei 36 °C
Excerpt: as §2, §3

Escherichia coli = experiment: Agar incorporation test, bacteriostatic activity; format: cell-based; set-up: key: ⊕⊕: ungehemmtes Wachstum; ⊕: vermindertes Wachstum; -: absolute Hemmung (a. H.); conditions: 24 h bei 36 °C
Excerpt: as §2, §3

[4] = system: FL-Linie (menschliche Amnionzellen); experiment: Cytotoxicity, cell count of monolayer culture after 24 h exposure; format: cell-based, human; conditions: Prüfkonzentration 0,005 %; 24 h; 1440 min
Procedure: as §1

[5] = Konzentration in Wasser 0,0015 %
[6] = Konzentration in Wasser 0,003 %
[7] = Konzentration in Wasser 0,006 %
[8] = Konzentration in Wasser 0,012 %
[9] = Konzentration in Wasser 0,025 %

CCCCCCCCCCSC(=N)N [Decylthiouroniumbromid]
33.5%: viability at 24 h ([2]; Prüfkonzentration 0,005 %)
19 mm: Hemmhofgröße (Staphylococcus aureus [1]; combination: 0,0009% Decylthiouroniumbromid im Agar with Perborat 0,5% im Stanzloch, Aktivator ja)
24 mm: Hemmhofgröße (Staphylococcus aureus [1]; combination: 0,0019% Decylthiouroniumbromid im Agar with Perborat 0,5% im Stanzloch, Aktivator ja)
96.8%: viability at 24 h ([2]; Prüfkonzentration 0,0001 %)

CCCCCCCCCCCCSC(=N)N [Dodecylthiouroniumchlorid]
70%: viability at 24 h ([2]; Prüfkonzentration 0,005 %)
0,1%: Konzentration, durch die Pseudomonas aeruginosa gehemmt wird (minimale Hemmkonzentration) (Pseudomonas aeruginosa; single substance, resistentester Testkeim)
⊕⊕: Bakteriostatische Wirksamkeit (Wachstum) (Pseudomonas aeruginosa; [5]) | Bakteriostatische Wirksamkeit (Wachstum) (Pseudomonas aeruginosa; [6]) | Bakteriostatische Wirksamkeit (Wachstum) (Pseudomonas aeruginosa; [7]) | Bakteriostatische Wirksamkeit (Wachstum) (Pseudomonas aeruginosa; [8]) | Bakteriostatische Wirksamkeit (Wachstum) (Pseudomonas aeruginosa; [9]) | Bakteriostatische Wirksamkeit (Wachstum) (Enterococcus faecium; [5]) | Bakteriostatische Wirksamkeit (Wachstum) (Enterococcus faecium; [6]) | Bakteriostatische Wirksamkeit (Wachstum) (Staphylococcus aureus [3]; [5]) | Bakteriostatische Wirksamkeit (Wachstum) (Staphylococcus aureus [3]; [6]) | Bakteriostatische Wirksamkeit (Wachstum) (Proteus mirabilis; [5]) | Bakteriostatische Wirksamkeit (Wachstum) (Proteus mirabilis; [6]) | Bakteriostatische Wirksamkeit (Wachstum) (Proteus mirabilis; [7]) | Bakteriostatische Wirksamkeit (Wachstum) (Escherichia coli; [5]) | Bakteriostatische Wirksamkeit (Wachstum) (Escherichia coli; [6]) | Bakteriostatische Wirksamkeit (Wachstum) (Escherichia coli; [7])
⊕: Bakteriostatische Wirksamkeit (Wachstum) (Pseudomonas aeruginosa; Konzentration in Wasser 0,05 %) | Bakteriostatische Wirksamkeit (Wachstum) (Enterococcus faecium; [7]) | Bakteriostatische Wirksamkeit (Wachstum) (Proteus mirabilis; [8]) | Bakteriostatische Wirksamkeit (Wachstum) (Proteus mirabilis; [9]) | Bakteriostatische Wirksamkeit (Wachstum) (Escherichia coli; [8])
69,9 % der Kontrolle: Median der Zellzahl [4]
101%: viability at 24 h ([2]; Prüfkonzentration 0,0001 %)
-: Bakteriostatische Wirksamkeit (Wachstum) (Pseudomonas aeruginosa; Konzentration in Wasser 0,1 %) | Bakteriostatische Wirksamkeit (Wachstum) (Pseudomonas aeruginosa; Konzentration in Wasser 0,2 %) | Bakteriostatische Wirksamkeit (Wachstum) (Pseudomonas aeruginosa; Konzentration in Wasser 0,4 %) | Bakteriostatische Wirksamkeit (Wachstum) (Pseudomonas aeruginosa; Konzentration in Wasser 0,8 %) | Bakteriostatische Wirksamkeit (Wachstum) (Enterococcus faecium; Konzentration in Wasser 0,1 %) | Bakteriostatische Wirksamkeit (Wachstum) (Enterococcus faecium; Konzentration in Wasser 0,2 %) | Bakteriostatische Wirksamkeit (Wachstum) (Enterococcus faecium; Konzentration in Wasser 0,4 %) | Bakteriostatische Wirksamkeit (Wachstum) (Enterococcus faecium; Konzentration in Wasser 0,05 %) | Bakteriostatische Wirksamkeit (Wachstum) (Enterococcus faecium; Konzentration in Wasser 0,8 %) | Bakteriostatische Wirksamkeit (Wachstum) (Enterococcus faecium; [8]) | Bakteriostatische Wirksamkeit (Wachstum) (Enterococcus faecium; [9]) | Bakteriostatische Wirksamkeit (Wachstum) (Staphylococcus aureus [3]; Konzentration in Wasser 0,1 %) | Bakteriostatische Wirksamkeit (Wachstum) (Staphylococcus aureus [3]; Konzentration in Wasser 0,2 %) | Bakteriostatische Wirksamkeit (Wachstum) (Staphylococcus aureus [3]; Konzentration in Wasser 0,4 %) | Bakteriostatische Wirksamkeit (Wachstum) (Staphylococcus aureus [3]; Konzentration in Wasser 0,05 %) | Bakteriostatische Wirksamkeit (Wachstum) (Staphylococcus aureus [3]; Konzentration in Wasser 0,8 %) | Bakteriostatische Wirksamkeit (Wachstum) (Staphylococcus aureus [3]; [7]) | Bakteriostatische Wirksamkeit (Wachstum) (Staphylococcus aureus [3]; [8]) | Bakteriostatische Wirksamkeit (Wachstum) (Staphylococcus aureus [3]; [9]) | Bakteriostatische Wirksamkeit (Wachstum) (Proteus mirabilis; Konzentration in Wasser 0,1 %) | Bakteriostatische Wirksamkeit (Wachstum) (Proteus mirabilis; Konzentration in Wasser 0,2 %) | Bakteriostatische Wirksamkeit (Wachstum) (Proteus mirabilis; Konzentration in Wasser 0,4 %) | Bakteriostatische Wirksamkeit (Wachstum) (Proteus mirabilis; Konzentration in Wasser 0,05 %) | Bakteriostatische Wirksamkeit (Wachstum) (Proteus mirabilis; Konzentration in Wasser 0,8 %) | Bakteriostatische Wirksamkeit (Wachstum) (Escherichia coli; Konzentration in Wasser 0,1 %) | Bakteriostatische Wirksamkeit (Wachstum) (Escherichia coli; Konzentration in Wasser 0,2 %) | Bakteriostatische Wirksamkeit (Wachstum) (Escherichia coli; Konzentration in Wasser 0,4 %) | Bakteriostatische Wirksamkeit (Wachstum) (Escherichia coli; Konzentration in Wasser 0,05 %) | Bakteriostatische Wirksamkeit (Wachstum) (Escherichia coli; Konzentration in Wasser 0,8 %) | Bakteriostatische Wirksamkeit (Wachstum) (Escherichia coli; [9])

O=BO[O-].[Na+] [Perborat, Natriumperborat]
19 mm: Hemmhofgröße (Staphylococcus aureus [1]; Perboratkonzentration im Stanzloch 2%, Aktivator ja, no Decylthiouroniumbromid im Agar)
15 mm: Hemmhofgröße (Staphylococcus aureus [1]; Perboratkonzentration im Stanzloch 1%, Aktivator ja, no Decylthiouroniumbromid im Agar)
0 mm: Hemmhofgröße (Staphylococcus aureus [1]; Perboratkonzentration im Stanzloch 0,5%, Aktivator nein, no Decylthiouroniumbromid im Agar) | Hemmhofgröße (Staphylococcus aureus [1]; Perboratkonzentration im Stanzloch 0,25%, Aktivator ja, no Decylthiouroniumbromid im Agar) | Hemmhofgröße (Staphylococcus aureus [1]; Perboratkonzentration im Stanzloch 0,25%, Aktivator nein, no Decylthiouroniumbromid im Agar)
11 mm: Hemmhofgröße (Staphylococcus aureus [1]; Perboratkonzentration im Stanzloch 1%, Aktivator nein, no Decylthiouroniumbromid im Agar)
13 mm: Hemmhofgröße (Staphylococcus aureus [1]; Perboratkonzentration im Stanzloch 0,5%, Aktivator ja, no Decylthiouroniumbromid im Agar) | Hemmhofgröße (Staphylococcus aureus [1]; Perboratkonzentration im Stanzloch 2%, Aktivator nein, no Decylthiouroniumbromid im Agar)
